Assay results taken from patent US10418127B2, “Method of formulating a skin-lightening composition” (The Procter & Gamble Company, priority 2012, dated 2019).

Assays:
[1] = system: tert-Keratinocyte (tKC) cell line; assay: C-map query with the composite skin tone benchmark signature; format: cell-based, human; conditions: composite signature of Niacinamide, Hexamidine, Sepiwhite and NAG
Procedure: Individual experiments (referred to as batches) generally comprise 30 to 96 samples analyzed using Affymetrix GeneChip® technology platforms, containing 6 replicates of the vehicle control (e.g., DSMO), 2 replicate samples of a positive control that gives a strong reproducible effect in the cell type used, and samples of the test material/perturbagen. Replication of the test material is done in separate batches due to batch effects. In vitro testing was performed in 6-well plates to provide sufficient RNA for GeneChip® analysis (2-4 μg total RNA yield/well).
Human telomerized keratinocytes (tKC) were obtained from the University of Texas, Southwestern Medical Center, Dallas, Tex. tKC cells were grown in EpiLife® media with 1× Human Keratinocyte Growth Supplement (Invitrogen, Carlsbad, Calif.) on collagen I coated cell culture flasks and plates (Becton Dickinson, Franklin Lakes, N.J.). Keratinocytes were seeded into 6-well plates at 20,000 cells/cm^2 24 hours before chemical exposure. Human skin fibroblasts (BJ cell line from ATCC, Manassas, Va.) were grown in Eagle's Minimal Essential Medium (ATCC) supplemented with 10% fetal bovine serum (HyClone, Logan, Utah) in normal cell culture flasks and plates (Corning, Lowell, Mass.). BJ fibroblasts were seeded into 6-well plates at 12,000 cells/cm^2 24 hours before chemical exposure. […]

[2] = system: Chinese females, 25-55 years old with hyperpigmented spots; assay: 9-week split-face, vehicle-controlled clinical skin tone benefit study; format: in vivo, human; conditions: 0.05% in SC-99 vehicle, vs vehicle
From the text: This Example provides evidence of the advantages of using composite signatures and illustrates clinical affirmation of the C-map model for predicting efficacy of skin-lightening agents. This Example supports embodiments related to composite signatures (as described at the end of Example 3). An illustrative “Skin Tone” Signature developed from a genomics study using a composite skin-lightening benchmark agent signature is derived from Niacinamide, Hexamidine, Sepiwhite, and NAG. The signature is used to query C-map and generate a list of potential skin-lightening agents. A top hit, Chlorhexidine Diactate (CD) is entered into clinical testing for confirmation of efficacy. The control for clinical efficacy is a 5% Niacinamide +1% Sepiwhite formulation in the control vehicle.
Primary endpoints are changes in color spot area fraction (image analysis) and melanin spot area fraction (NC2) from baseline. Secondary endpoints are changes from baseline in L*a*b (color image analysis), mean melanin gray scale (NC2), and melanin evenness (NC2). Texture area fraction and pore area fraction are also evaluated to explore impact on other aspects relating to overall skin tone. […] Statistically significant superiority to the high efficacy benchmark skin active agent to vehicle performance is the clinical success criteria.
Study Design: The experimental protocol included a 9-week (1-week preconditioning & 8-week treatment), randomized, double-blind, round robin, vehicle-controlled, split-face tone benefit study. The subject population included 330 Chinese females, 25-55 years old with hyperpigmented spots. 318 subjects completed the entire study. […] Olay Complete SPF 15 UV Moisturizing Lotion is concomitantly used during pre-conditioning and treatment. 0.5 g each test product per half-face (forehead to jaw line; ˜4 mg/cm^2) is dosed 2× a day (morning/evening). Color SAF and treatment area, Melanin SAF, gray scale, evenness by NC2, and additional measurement of Fine Lines and Wrinkle and Texture are by REAL 3.01A. Data collection points include baseline, and ends of weeks 4, 6 and 8. The tested hypothesis is that there is no difference in clinical endpoint versus the benchmark composition treatment. Study site is Kuntai Clinical Center, Beijing, China and study time frame is February 2010 (pre-conditioning) to April 2010.

tyrosinase = target: T1, tyrosinase (Homo sapiens, UniProt P14679); conditions: in vitro; cited from earlier work
T1 sequence (P14679 19-529): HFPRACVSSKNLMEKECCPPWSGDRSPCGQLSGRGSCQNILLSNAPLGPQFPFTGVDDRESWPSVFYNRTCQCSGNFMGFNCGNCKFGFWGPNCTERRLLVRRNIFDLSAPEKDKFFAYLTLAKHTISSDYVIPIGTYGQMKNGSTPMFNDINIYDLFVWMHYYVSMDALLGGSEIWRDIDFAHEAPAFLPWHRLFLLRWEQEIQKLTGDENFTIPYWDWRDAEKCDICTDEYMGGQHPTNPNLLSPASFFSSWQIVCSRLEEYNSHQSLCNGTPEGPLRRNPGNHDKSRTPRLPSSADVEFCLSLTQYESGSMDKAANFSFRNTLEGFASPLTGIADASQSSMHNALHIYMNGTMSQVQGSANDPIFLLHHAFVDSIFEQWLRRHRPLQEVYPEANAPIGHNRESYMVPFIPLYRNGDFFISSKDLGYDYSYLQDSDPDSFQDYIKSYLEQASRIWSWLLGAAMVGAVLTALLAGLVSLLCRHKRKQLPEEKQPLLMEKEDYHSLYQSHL

[3] = system: melanosome transfer from melanocytes to keratinocytes; conditions: in vitro; cited from earlier work
melanocyte = conditions: in vitro; cited from earlier work
[4] = system: ultraviolet-induced skin pigmentation; conditions: Shimizu K. et al., Planta Med 2002; cited from earlier work

Structure (SMILES): CC(=O)O.CC(=O)O.NC(=N\CCCCCC/N=C(N)/N=C(\N)Nc1ccc(Cl)cc1)/N=C(\N)Nc1ccc(Cl)cc1 [CD, Chlorhexidine Diacetate]
- connectivity to the tone composite benchmark signature query [1]: top connectivity hit
- spot area fraction color test ([2]; 2x a day, week 8): significantly fewer spots when compared to vehicle
- Basal skin tone ([2]; week 8): demonstrated superiority
- Pore area fraction ([2]; week 8): superior efficacy
- Texture area fraction ([2]; week 8): superior efficacy
- NC2 Melanin evenness test ([2]; weeks 6 and 8): superiority to the vehicle
- spot area fraction NC2 test ([2]; weeks 6 and 8): significantly reduced fraction when compared to the vehicle

Structure (SMILES): N[C@H]1C(O)O[C@H](CO)[C@@H](O)[C@@H]1O (some centres unmarked) [glucosamine]
- production of melanin (tyrosinase): reduces production of melanin by inhibiting activation of tyrosinase

Structure (SMILES): NC(=O)c1cccnc1 [niacinamide]
- melanosome transfer [3]: inhibits melanosome transfer from melanocytes to keratinocytes

Structure (SMILES): C=CCCCCCCCCC(=O)N[C@@H](Cc1ccccc1)C(=O)O [N-undecylenoyl-L-phenylalanine]
- binding of alpha-MSH to the melanocyte (melanocyte): inhibit biding of alpha-MSH to the melanocyte

Structure (SMILES): COc1cc2oc(-c3ccc(O)cc3O)c(CC=C(C)C)c(=O)c2c(O)c1/C=C/C(C)C [artocarpin]
- skin-lightening efficacy [4]: some efficacy for skin-lightening
